Results on one molecule are retold here after publication PMC2132602 (The Journal of Cell Biology, 1998).

The target in the experiment is T1, RPK (Ripped Pocket) (Drosophila melanogaster, UniProt Q7KTQ9).
T1 sequence (Q7KTQ9 1-562): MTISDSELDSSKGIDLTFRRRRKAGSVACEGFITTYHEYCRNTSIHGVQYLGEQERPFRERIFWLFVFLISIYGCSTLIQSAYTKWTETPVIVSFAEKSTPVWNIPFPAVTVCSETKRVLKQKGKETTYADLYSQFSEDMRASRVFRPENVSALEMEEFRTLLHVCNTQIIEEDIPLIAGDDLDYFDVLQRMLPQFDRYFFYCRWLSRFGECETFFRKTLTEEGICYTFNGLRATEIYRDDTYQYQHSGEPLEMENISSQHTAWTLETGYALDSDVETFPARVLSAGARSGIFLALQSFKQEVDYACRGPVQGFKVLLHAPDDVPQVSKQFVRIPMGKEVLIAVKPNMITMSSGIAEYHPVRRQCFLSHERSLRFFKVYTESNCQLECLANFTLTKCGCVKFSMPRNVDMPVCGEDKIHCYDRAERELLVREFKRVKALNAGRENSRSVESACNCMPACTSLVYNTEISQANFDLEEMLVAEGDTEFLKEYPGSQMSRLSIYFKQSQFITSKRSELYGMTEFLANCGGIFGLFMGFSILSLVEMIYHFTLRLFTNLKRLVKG
In words: two-electrode voltage clamp, Xenopus oocytes, dose-response of Na+ current block. In kind it is cell-based. A general note: In two-electrode clamp one electrode senses voltage and the other passes current.

For orientation: IC50 means the point on the concentration scale where inhibition reaches its midpoint. A lower IC50 goes with inhibition by little substance.

Consider `N=C(N)NC(=O)c1nc(Cl)c(N)nc1N` [amiloride], for which the IC50 came to 9 ± 0.1 µM.
